Laboratory results taken from PubChem BioAssay AID248 (DTP/NCI, 2004).
Several values for one entry are separate records, joined by “and”; a condition that tells them apart may be missing. Equal values may be shown once. Inconclusive results and toxic doses are left out.

Tested on: L1210 leukemia ip in BDF1 mice, survival T/C
Assay: NCI In Vivo Anticancer Drug Screen. Data for tumor model L1210 Leukemia (intraperitoneal) in B6D2F1 (BDF1) mice
Conditions: endpoint: mean survival time, higher = longer survival
Summary of the method: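 Survival endpoint. Drug-treated group vs vehicle group, expressed as T divided by C. Tumor passaged by transplantation.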

In the case of `O=NN(CCF)C(=O)NC1CCCCC1`, the T/C (dose: 0.33 mg/kg/injection, schedule: Q#B X003 (ip), vehicle: other) is reported as 109 % of control, the T/C (dose: 0.66 mg/kg/injection, schedule: Q#B X003 (ip), vehicle: other) is reported as 119 % of control and the T/C (dose: 0.93 mg/kg/injection, schedule: Q01DX001 (ip), vehicle: carboxymethylcellulose (CMC)) is reported as 102 % of control. For the same compound, the T/C (dose: 1.33 mg/kg/injection, schedule: Q#B X003 (ip), vehicle: other) was 121 % of control, the T/C (dose: 1.56 mg/kg/injection, schedule: Q03HX032 (ip), vehicle: carboxymethylcellulose (CMC)) was 111 % of control and the T/C (dose: 1.87 mg/kg/injection, schedule: Q01DX001 (ip), vehicle: carboxymethylcellulose (CMC)) was 102 % of control. The T/C (dose: 2.97 mg/kg/injection, schedule: Q01DX015 (ip), vehicle: other) was 96 % of control and 117 % of control, the T/C (dose: 3.12 mg/kg/injection, schedule: Q01DX001 (sc), vehicle: other) was 122 % of control and the T/C (dose: 3.12 mg/kg/injection, schedule: Q03HX008 (ip), vehicle: carboxymethylcellulose (CMC)) was 188 % of control. The T/C (dose: 3.12 mg/kg/injection, schedule: Q03HX032 (ip), vehicle: carboxymethylcellulose (CMC)) was 416 % of control, the T/C (dose: 3.12 mg/kg/injection, schedule: Q03HX032 (oral), vehicle: carboxymethylcellulose (CMC)) was 177 % of control and the T/C (dose: 3.75 mg/kg/injection, schedule: Q01DX001 (ip), vehicle: carboxymethylcellulose (CMC)) was 112 % of control. For the same compound, the T/C (dose: 5.0 mg/kg/injection, schedule: Q01DX001 (ip), vehicle: carboxymethylcellulose (CMC)) was 108 % of control, the T/C (dose: 6.0 mg/kg/injection, schedule: Q02DX008 (ip), vehicle: other) was 157 % of control and 160 % of control and the T/C (dose: 6.25 mg/kg/injection, schedule: Q01DX001 (sc), vehicle: other) was 117 % of control. For the same compound, the T/C (dose: 6.25 mg/kg/injection, schedule: Q01DX013 (ip), vehicle: carboxymethylcellulose (CMC)) was 122 % of control, the T/C (dose: 6.25 mg/kg/injection, schedule: Q03HX008 (oral), vehicle: carboxymethylcellulose (CMC)) was 605 % of control and the T/C (dose: 6.25 mg/kg/injection, schedule: Q03HX032 (oral), vehicle: carboxymethylcellulose (CMC)) was 288 % of control. For the same compound, the T/C (dose: 6.25 mg/kg/injection, schedule: Q## X006 (ip), vehicle: carboxymethylcellulose (CMC)) was 111 % of control, the T/C (dose: 6.25 mg/kg/injection, schedule: Q## X006 (oral), vehicle: carboxymethylcellulose (CMC)) was 305 % of control and the T/C (dose: 6.75 mg/kg/injection, schedule: Q01DX015 (ip), vehicle: other) was 448 % of control and 489 % of control. For the same compound, the T/C (dose: 9.0 mg/kg/injection, schedule: Q02DX008 (ip), vehicle: other) was 345 % of control and 397 % of control, the T/C (dose: 10.0 mg/kg/injection, schedule: Q01DX015 (ip), vehicle: other) was 424 % of control and 524 % of control and the T/C (dose: 12.0 mg/kg/injection, schedule: Q## X004 (ip), vehicle: other) was 370 % of control and 608 % of control. The T/C (dose: 12.5 mg/kg/injection, schedule: Q01DX001 (ip), vehicle: carboxymethylcellulose (CMC)) was 183 % of control, the T/C (dose: 12.5 mg/kg/injection, schedule: Q01DX001 (sc), vehicle: other) was 157 % of control and the T/C (dose: 12.5 mg/kg/injection, schedule: Q01DX013 (ip), vehicle: carboxymethylcellulose (CMC)) was 183 % of control. The T/C (dose: 12.5 mg/kg/injection, schedule: Q03HX032 (oral), vehicle: carboxymethylcellulose (CMC)) was 255 % of control, the T/C (dose: 12.5 mg/kg/injection, schedule: Q## X006 (ip), vehicle: carboxymethylcellulose (CMC)) was 155 % of control and the T/C (dose: 13.5 mg/kg/injection, schedule: Q01DX001 (ip), vehicle: other) was 187 % of control. For the same compound, the T/C (dose: 13.5 mg/kg/injection, schedule: Q01DX001 (oral), vehicle: other) was 178 % of control and 183 % of control, the T/C (dose: 13.5 mg/kg/injection, schedule: Q02DX008 (ip), vehicle: other) was 456 % of control and 470 % of control and the T/C (dose: 13.5 mg/kg/injection, schedule: Q## X001 (ip), vehicle: other) was 247 % of control. The T/C (dose: 13.5 mg/kg/injection, schedule: Q## X001 (oral), vehicle: other) was 253 % of control, the T/C (dose: 14.0 mg/kg/injection, schedule: Q## X032 (ip), vehicle: other) was 341 % of control and the T/C (dose: 15.0 mg/kg/injection, schedule: Q01DX001 (ip), vehicle: carboxymethylcellulose (CMC)) was 174 % of control. The T/C (dose: 15.0 mg/kg/injection, schedule: Q01DX015 (ip), vehicle: other) was 158 % of control and 438 % of control, the T/C (dose: 16.2 mg/kg/injection, schedule: Q01DX001 (ip), vehicle: other) was 314 % of control and the T/C (dose: 18.0 mg/kg/injection, schedule: Q## X004 (ip), vehicle: other) was 601 % of control and 682 % of control. For the same compound, the T/C (dose: 20.0 mg/kg/injection, schedule: Q01DX001 (ip), vehicle: carboxymethylcellulose (CMC)) was 250 % of control, the T/C (dose: 20.0 mg/kg/injection, schedule: Q02DX008 (ip), vehicle: other) was 380 % of control and 649 % of control and the T/C (dose: 22.0 mg/kg/injection, schedule: Q## X032 (ip), vehicle: other) was 240 % of control. The T/C (dose: 23.0 mg/kg/injection, schedule: Q01DX001 (ip), vehicle: other) was 238 % of control, the T/C (dose: 25.0 mg/kg/injection, schedule: Q01DX001 (ip), vehicle: carboxymethylcellulose (CMC)) was 192 % of control and the T/C (dose: 25.0 mg/kg/injection, schedule: Q01DX001 (oral), vehicle: carboxymethylcellulose (CMC)) was 616 % of control and 733 % of control. For the same compound, the T/C (dose: 25.0 mg/kg/injection, schedule: Q01DX001 (sc), vehicle: carboxymethylcellulose (CMC)) was 216 % of control, the T/C (dose: 25.0 mg/kg/injection, schedule: Q01DX001 (sc), vehicle: other) was 317 % of control and the T/C (dose: 25.0 mg/kg/injection, schedule: Q01DX005 (oral), vehicle: carboxymethylcellulose (CMC)) was 344 % of control. For the same compound, the T/C (dose: 25.0 mg/kg/injection, schedule: Q## X006 (ip), vehicle: carboxymethylcellulose (CMC)) was 733 % of control, the T/C (dose: 25.0 mg/kg/injection, schedule: Q## X006 (oral), vehicle: carboxymethylcellulose (CMC)) was 355 % of control and the T/C (dose: 27.0 mg/kg/injection, schedule: Q01DX001 (ip), vehicle: other) was 241 % of control and 302 % of control. For the same compound, the T/C (dose: 27.0 mg/kg/injection, schedule: Q01DX001 (oral), vehicle: other) was 264 % of control and 289 % of control, the T/C (dose: 27.0 mg/kg/injection, schedule: Q## X001 (ip), vehicle: other) was 447 % of control and the T/C (dose: 27.0 mg/kg/injection, schedule: Q## X001 (oral), vehicle: other) was 280 % of control and 426 % of control. For the same compound, the T/C (dose: 27.0 mg/kg/injection, schedule: Q## X004 (ip), vehicle: other) was 412 % of control and 594 % of control, the T/C (dose: 30.0 mg/kg/injection, schedule: Q01DX001 (ip), vehicle: carboxymethylcellulose (CMC)) was 322 % of control and the T/C (dose: 30.0 mg/kg/injection, schedule: Q02DX008 (ip), vehicle: other) was 153 % of control and 256 % of control. The T/C (dose: 32.0 mg/kg/injection, schedule: Q## X032 (ip), vehicle: other) was 105 % of control, the T/C (dose: 36.0 mg/kg/injection, schedule: Q01DX001 (ip), vehicle: other) was 529 % of control and the T/C (dose: 40.0 mg/kg/injection, schedule: Q## X004 (ip), vehicle: other) was 209 % of control and 600 % of control. The T/C (dose: 41.0 mg/kg/injection, schedule: Q## X001 (oral), vehicle: other) was 383 % of control, the T/C (dose: 45.0 mg/kg/injection, schedule: Q01DX001 (ip), vehicle: carboxymethylcellulose (CMC)) was 344 % of control and the T/C (dose: 48.0 mg/kg/injection, schedule: Q## X032 (ip), vehicle: other) was 114 % of control and 120 % of control. For the same compound, the T/C (dose: 50.0 mg/kg/injection, schedule: Q01DX001 (oral), vehicle: carboxymethylcellulose (CMC)) was 716 % of control, the T/C (dose: 50.0 mg/kg/injection, schedule: Q01DX001 (sc), vehicle: carboxymethylcellulose (CMC)) was 733 % of control and the T/C (dose: 50.0 mg/kg/injection, schedule: Q01DX005 (oral), vehicle: carboxymethylcellulose (CMC)) was 200 % of control. The T/C (dose: 50.0 mg/kg/injection, schedule: Q04DX004 (ip), vehicle: carboxymethylcellulose (CMC)) was 183 % of control, the T/C (dose: 50.0 mg/kg/injection, schedule: Q04DX004 (oral), vehicle: carboxymethylcellulose (CMC)) was 205 % of control and the T/C (dose: 50.0 mg/kg/injection, schedule: Q## X006 (ip), vehicle: carboxymethylcellulose (CMC)) was 733 % of control. For the same compound, the T/C (dose: 50.0 mg/kg/injection, schedule: Q## X006 (oral), vehicle: carboxymethylcellulose (CMC)) was 116 % of control, the T/C (dose: 54.0 mg/kg/injection, schedule: Q01DX001 (ip), vehicle: carboxymethylcellulose (CMC)) was 282 % of control and the T/C (dose: 54.0 mg/kg/injection, schedule: Q01DX001 (oral), vehicle: other) was 352 % of control. The T/C (dose: 54.0 mg/kg/injection, schedule: Q## X001 (ip), vehicle: other) was 421 % of control, the T/C (dose: 54.0 mg/kg/injection, schedule: Q## X001 (oral), vehicle: other) was 226 % of control and the T/C (dose: 60.0 mg/kg/injection, schedule: Q## X004 (ip), vehicle: other) was 200 % of control. The T/C (dose: 67.0 mg/kg/injection, schedule: Q01DX001 (ip), vehicle: carboxymethylcellulose (CMC)) was 289 % of control, the T/C (dose: 100.0 mg/kg/injection, schedule: Q01DX001 (oral), vehicle: carboxymethylcellulose (CMC)) was 166 % of control and 244 % of control and the T/C (dose: 100.0 mg/kg/injection, schedule: Q04DX004 (oral), vehicle: carboxymethylcellulose (CMC)) was 122 % of control. For the same compound, the T/C (dose: 200.0 mg/kg/injection, schedule: Q01DX001 (oral), vehicle: carboxymethylcellulose (CMC)) was 155 % of control.
